24 compounds from patent publication US9174952B2, “Substituted 3-thiazoloamino-propionic acid derivatives and their use as pharmaceuticals” (SANOFI, priority 2011, dated 2015) can be followed below.

SMILES strings stand for the structures.

As a reminder, the IC50 is the midpoint of a concentration-inhibition curve.

This assay addresses T1, Recombinant human cathepsin A (Homo sapiens, UniProt P10619).
T1 construct: Recombinant human cathepsin A (residues 29-480, with a C-terminal 10-His tag); 10-His (C); purchased R&D Systems 1049-SE
T1 sequence (P10619 29-326 limits assumed): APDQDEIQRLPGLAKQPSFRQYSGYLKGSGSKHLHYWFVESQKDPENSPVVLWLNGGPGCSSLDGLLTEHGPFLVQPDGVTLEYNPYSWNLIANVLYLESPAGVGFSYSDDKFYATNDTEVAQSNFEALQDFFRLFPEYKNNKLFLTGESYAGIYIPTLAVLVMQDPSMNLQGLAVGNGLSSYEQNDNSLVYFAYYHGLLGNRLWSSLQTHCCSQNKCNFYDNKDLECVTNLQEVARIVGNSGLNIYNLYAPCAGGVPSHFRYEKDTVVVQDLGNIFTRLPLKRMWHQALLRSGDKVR
T1 sequence (P10619 327-480 limits assumed): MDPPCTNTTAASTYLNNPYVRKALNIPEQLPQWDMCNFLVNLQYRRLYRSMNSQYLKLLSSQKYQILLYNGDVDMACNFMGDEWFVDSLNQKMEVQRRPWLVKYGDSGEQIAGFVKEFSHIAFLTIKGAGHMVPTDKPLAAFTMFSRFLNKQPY
The assay is described as follows: Cathepsin A inhibitory activity. It counts as biochemical. Conditions: activated recombinant human cathepsin A 833 ng/ml, Bodipy FL-labeled bradykinin substrate 2 μM, pH 5.5, room temperature. A digest of the protocol:
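Enzyme (residues 29-480, C-terminal His tag) pre-activated by cathepsin L at 37° C, then quenched with E-64. Compound preincubated 15 min at room temperature in 25 mM MES pH 5.5 with 5 mM DTT, then 2 μM Bodipy FL-bradykinin added for 15 min at 833 ng/ml enzyme. Product/substrate separated by microfluidic capillary electrophoresis; IC50 from multi-concentration inhibition.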
For the compound `O=C(O)C[C@H](NC(=O)c1csc(-c2ccccc2Cl)n1)c1ccccc1C(F)(F)F` [Example 77, (S)-3-{[2-(2-Chloro-phenyl)-thiazole-4-carbonyl]-amino}-3-(2-trifluoromethyl-phenyl)-propionic acid], the half-maximal inhibitory concentration (IC50) came to 712 nM.

Consider `O=C(O)C[C@H](NC(=O)c1csc(-c2ccccc2Cl)n1)c1ccc(Cl)cc1Cl` [Example 75, (S)-3-{[2-(2-Chloro-phenyl)-thiazole-4-carbonyl]-amino}-3-(2,4-dichloro-phenyl)-propionic acid], for which the IC50 came to 288 nM. Regarding `Cc1ccccc1[C@H](CC(=O)O)NC(=O)c1csc(-c2ccccc2)n1` [Example 63, (S)-3-[(2-Phenyl-thiazole-4-carbonyl)-amino]-3-o-tolyl-propionic acid], the IC50 turned out to be 61 nM. With `O=C(O)CC(Cc1ccccc1)NC(=O)c1csc(-c2ccc(C(F)(F)F)cc2)n1` (stereo not drawn) [Example 135, 4-Phenyl-3-{[2-(4-trifluoromethyl-phenyl)-thiazole-4-carbonyl]-amino}-butyric acid], the concentration for half-maximal inhibition (IC50) amounted to 22200 nM. With `O=C(O)CC(Cc1ccccc1)NC(=O)c1csc(-c2ccccc2Cl)n1` (stereo not drawn) [Example 120, 3-{[2-(2-Chloro-phenyl)-thiazole-4-carbonyl]-amino}-4-phenyl-butyric acid] the figure was 1450 nM; with `COc1cccc([C@H](CC(=O)O)NC(=O)c2csc(-c3ccccc3C)n2)c1OC` [Example 17, (S)-3-(2,3-Dimethoxy-phenyl)-3-[(2-o-tolyl-thiazole-4-carbonyl)-amino]-propionic acid], 242 nM. For `O=C(O)CC(Cc1ccccc1)NC(=O)c1csc(-c2cccc(Cl)c2Cl)n1` (stereo not drawn) [Example 117, 3-{[2-(2,3-Dichloro-phenyl)-thiazole-4-carbonyl]-amino}-4-phenyl-butyric acid], the IC50 was found to be 2750 nM. Consider `O=C(O)CC(NC(=O)c1csc(-c2cccc(Cl)c2)n1)C1CCCCC1` (stereo not drawn) [Example 124, 3-{[2-(3-Chloro-phenyl)-thiazole-4-carbonyl]-amino}-3-cyclohexyl-propionic acid], for which the IC50 stood at 3420 nM. On to `O=C(O)C[C@H](NC(=O)c1csc(-c2ccc(C(F)(F)F)cc2)n1)c1cccc(Cl)c1Cl` [Example 16, (S)-3-(2,3-Dichloro-phenyl)-3-{[2-(4-trifluoromethyl-phenyl)-thiazole-4-carbonyl]-amino}-propionic acid], for which the IC50 was found to be 3020 nM.

For `COc1cccc([C@H](CC(=O)O)NC(=O)c2csc(-c3ccc(Cl)cc3)n2)c1` [Example 106, (S)-3-{[2-(4-Chloro-phenyl)-thiazole-4-carbonyl]-amino}-3-(3-methoxy-phenyl)-propionic acid], the IC50 came to 17300 nM.

Regarding `COc1cccc([C@H](CC(=O)O)NC(=O)c2csc(-c3ccccc3)n2)c1OC` [Example 18, (S)-3-(2,3-Dimethoxy-phenyl)-3-[(2-phenyl-thiazole-4-carbonyl)-amino]-propionic acid], the IC50 is 498 nM. With `COc1ccc([C@H](CC(=O)O)NC(=O)c2csc(-c3ccccc3)n2)cc1` [Example 59, (S)-3-(4-Methoxy-phenyl)-3-[(2-phenyl-thiazole-4-carbonyl)-amino]-propionic acid], the IC50 came to 976 nM. For `O=C(O)C[C@H](NC(=O)c1csc(-c2cccc(Cl)c2Cl)n1)c1ccc(Cl)cc1Cl` [Example 23, (S)-3-(2,4-Dichloro-phenyl)-3-{[2-(2,3-dichloro-phenyl)-thiazole-4-carbonyl]-amino}-propionic acid], the concentration for half-maximal inhibition (IC50) is 555 nM. To `COc1cccc([C@H](CC(=O)O)NC(=O)c2csc(-c3ccccc3F)n2)c1OC` [Example 19, (S)-3-(2,3-Dimethoxy-phenyl)-3-{[2-(2-fluoro-phenyl)-thiazole-4-carbonyl]-amino}-propionic acid] belongs 875 nM; to `O=C(O)C[C@H](NC(=O)c1csc(-c2cccc(Cl)c2)n1)c1ccccc1F` [Example 92, (S)-3-{[2-(3-Chloro-phenyl)-thiazole-4-carbonyl]-amino}-3-(2-fluoro-phenyl)-propionic acid], 1310 nM; to `O=C(O)C[C@H](NC(=O)c1csc(-c2ccccc2Cl)n1)c1cccc(F)c1` [Example 78, (S)-3-{[2-(2-Chloro-phenyl)-thiazole-4-carbonyl]-amino}-3-(3-fluoro-phenyl)-propionic acid], 257 nM. As to `O=C(N[C@@H](Cc1ccc(Cl)cc1)C(=O)O)c1csc(-c2ccc(C(F)(F)F)cc2)n1` [Example 107, (S)-3-(4-Chloro-phenyl)-2-{[2-(4-trifluoromethyl-phenyl)-thiazole-4-carbonyl]-amino}-propionic acid], the IC50 amounted to 3700 nM. With `O=C(O)C[C@H](NC(=O)c1csc(-c2ccccc2Cl)n1)c1cccc(Cl)c1Cl` [Example 73, (S)-3-{[2-(2-Chloro-phenyl)-thiazole-4-carbonyl]-amino}-3-(2,3-dichloro-phenyl)-propionic acid] the figure was 70 nM. With `O=C(O)C[C@H](NC(=O)c1nc(-c2ccccc2)cs1)c1cccc(F)c1` [Example 55, (S)-3-(3-Fluoro-phenyl)-3-[(4-phenyl-thiazole-2-carbonyl)-amino]-propionic acid], the IC50 is 542 nM. For `O=C(O)C[C@H](NC(=O)c1nc(-c2ccccc2)cs1)c1ccccc1F` [Example 53, (S)-3-(2-Fluoro-phenyl)-3-[(4-phenyl-thiazole-2-carbonyl)-amino]-propionic acid], the IC50 is 1750 nM. To `Cc1cccc([C@H](CC(=O)O)NC(=O)c2nc(-c3ccccc3)cs2)c1` [Example 3, (S)-3-[(4-Phenyl-thiazole-2-carbonyl)-amino]-3-m-tolyl-propionic acid] belongs 315 nM; to `O=C(O)CC(NC(=O)c1csc(-c2ccccc2)n1)C1CCCCC1` (stereo not drawn) [Example 129, 3-Cyclohexyl-3-[(2-phenyl-thiazole-4-carbonyl)-amino]-propionic acid], 1120 nM. Regarding `O=C(O)CC(NC(=O)c1csc(-c2ccccc2Cl)n1)C1CCCCC1` (stereo not drawn) [Example 119, 3-{[2-(2-Chloro-phenyl)-thiazole-4-carbonyl]-amino}-3-cyclohexyl-propionic acid], the IC50 was determined as 680 nM. Consider `O=C(O)C[C@H](NC(=O)c1csc(-c2ccccc2)n1)c1ccccc1F` [Example 35, (S)-3-(2-Fluoro-phenyl)-3-[(2-phenyl-thiazole-4-carbonyl)-amino]-propionic acid], for which the IC50 came out at 1480 nM.
